Assay results: patent EP4733306A1, “NOVEL MODIFIED TRINUCLEOTIDE CAPPING DERIVATIVE, AND MRNA INTO WHICH CAPPING DERIVATIVE IS INTRODUCED” (Elonova Co., Ltd., priority 2023, dated 2025)
“Also recorded” adds a separate entry of the source.

Tests used:
[1] = system: HEK 293 cells; assay: Luciferase (antigen protein) expression from capped Luciferase mRNA transfected into HEK 293 cells, luminescence readout; type: cell-based
Description: HEK 293 cells were cultured in a 60 mL culture plate containing DMEM supplemented with 10% FBS and 1% pen/strep. On the day prior to transfection, the cells were detached using trypsin and resuspended in new medium. The cells were seeded into a 96-well plate. On the next day, when the cells reached 70% confluence, the transfection mixture was prepared and transfection was performed.
The purified mRNA was quantified using a nanodrop spectrophotometer, and the transcription yield for each rNTP combination was compared. For cell transfection, 500 ng of each mRNA was collected and mixed with 5 µL of Opti-MEM. Separately, 0.5 µL of Lipofectamine was mixed with 5 µL of Opti-MEM in another tube and incubated at room temperature for 10 minutes. Then, the mRNA and Lipofectamine mixtures were combined in the same tube and incubated for an additional 5 minutes at room temperature. Finally, the transfection mixture was added to the cells and incubated for 24 hours.
(§1) After the incubation period, the medium was removed, and the cells were lysed using 50 µL of 1X lysis buffer. The cell lysate was transferred into microcentrifuge tubes. For luciferase luminescence analysis, 100 µL of luciferin substrate was added to each sample in a 96-well white plate. Then, 20 µL of each cell lysate sample was added and mixed by pipetting. Finally, the luminescence of luciferase was recorded using a luminometer instrument.
HEK 293 cells were cultured in a 60 mL culture plate containing DMEM supplemented with 10% FBS and 1% pen/strep. On the day prior to transfection, the cells were detached using trypsin and resuspended in fresh medium. The cells were then seeded in a 96-well plate. On the following day, when the cells reached 70% confluence, the transfection mixture was prepared and transfection was performed.
as §1, with “taken for” for “added to”

[2] = target: T7 RNA polymerase (Escherichia phage T7, UniProt P00573); assay: In vitro transcription of Luciferase template with T7 RNA polymerase in the presence of the capping material (gel); type: biochemical; settings: compared with CleanCap (cap 1 commercial)
Description: The concentration of the luciferase template was measured using a nanodrop spectrophotometer. For each transcription reaction, 100 ng of template in 1 µL was placed into a microcentrifuge tube. Then, 1.5 µL of 10X transcription buffer (400 mM Tris-HCl, 60 mM MgCl2, 10 mM DTT, 20 mM spermidine) and 1.5 µL of 100 mM DTT were added to the tube. rATP, rCTP, and rUTP were each used (1 µL, 10 mM). For cap-dependent transcription of luciferase, rGTP was used (1 µL, 2.5 mM). The ratio of capping material was maintained at four times higher than rGTP so as to provide mRNA capped at ≥80%. Accordingly, 1 µL of capping material (10 mM) was added. RNase inhibitor (0.5 µL, 40 U/µL) and T7 RNA polymerase (1 µL, 50 U/µL) were added. Nuclease-free water (4.5-5.5 µL) was added to bring the final volume of the reaction to 15 µL. In the case of modified rNTPs, 10 mM stock solutions were prepared and the corresponding derivatives were added in place of rCTP and rUTP. The reaction was incubated at 37°C for 1 hour, and after 1 hour, 1.8 µL of 10X DNase I buffer (10 mM Tris-HCl, 2.5 mM MgCl2, 0.5 mM CaCl2) and 1 µL of DNase I (2 U/µL) were added to the reaction and incubated for an additional 15 minutes at 37°C to remove all DNA templates.

[3] = Luciferase mRNA capped with the analog, compared with mRNA introduced with ARCA cap (cap 0) and CleanCap (cap 1 commercial), HEK 293
[4] = Luciferase mRNA capped with the analog, compared with Luciferase mRNA introduced with CleanCap (Luc mRNA Cap1)

Chain of T7 RNA polymerase (P00573 whole entry): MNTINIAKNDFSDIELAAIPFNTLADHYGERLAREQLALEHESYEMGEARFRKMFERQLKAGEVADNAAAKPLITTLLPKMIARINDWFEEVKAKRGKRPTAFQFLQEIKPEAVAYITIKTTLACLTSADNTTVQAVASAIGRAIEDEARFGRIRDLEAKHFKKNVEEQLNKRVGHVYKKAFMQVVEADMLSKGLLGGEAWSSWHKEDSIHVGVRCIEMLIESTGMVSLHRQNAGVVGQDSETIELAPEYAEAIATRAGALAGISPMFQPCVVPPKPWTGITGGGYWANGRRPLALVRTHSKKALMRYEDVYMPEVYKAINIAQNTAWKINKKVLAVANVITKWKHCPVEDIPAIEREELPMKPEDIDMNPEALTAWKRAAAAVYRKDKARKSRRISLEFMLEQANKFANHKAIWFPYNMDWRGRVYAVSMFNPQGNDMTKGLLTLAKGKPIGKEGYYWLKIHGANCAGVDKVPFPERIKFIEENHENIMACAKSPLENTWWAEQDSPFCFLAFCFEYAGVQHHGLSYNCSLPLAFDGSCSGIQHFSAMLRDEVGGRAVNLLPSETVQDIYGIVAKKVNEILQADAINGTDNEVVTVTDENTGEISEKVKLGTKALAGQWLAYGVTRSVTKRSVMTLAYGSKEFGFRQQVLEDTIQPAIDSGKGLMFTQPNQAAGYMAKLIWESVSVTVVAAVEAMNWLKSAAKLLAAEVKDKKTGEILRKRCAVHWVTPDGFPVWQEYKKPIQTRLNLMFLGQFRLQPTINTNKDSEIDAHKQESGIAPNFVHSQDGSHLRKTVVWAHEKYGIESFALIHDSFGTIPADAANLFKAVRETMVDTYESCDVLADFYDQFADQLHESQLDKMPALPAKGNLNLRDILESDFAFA

CO[C@@H]1[C@H](OP(=O)(O)OC[C@H]2O[C@@H](n3cnc4c(=O)[nH]c(N)nc43)[C@H](O)[C@@H]2O)[C@@H](COP(=O)(O)OP(O)(=S)OP(=O)(O)OC[C@H]2O[C@@H](n3c[n+](Cc4ccc(Cl)cc4)c4c(=O)[nH]c(N)nc43)[C@H](O)[C@@H]2O)O[C@H]1n1cnc2c(N)ncnc21 (single isomer, unassigned) [^4-ClBn7GppspAmpG (D1), Guanosine N7-4-Cl-benzyl β-phosphorothioate trinucleotide Cap1]
antigen protein expression efficiency [1, 3]: higher

CO[C@@H]1[C@H](OP(=O)(O)OC[C@H]2O[C@@H](n3cnc4c(=O)[nH]c(N)nc43)[C@H](O)[C@@H]2O)[C@@H](COP(=O)(O)OP(=O)(S)OP(=O)(O)OC[C@H]2O[C@@H](n3c[n+](Cc4ccc(Cl)cc4)c4c([O-])nc(N)nc43)[C@H](O)[C@@H]2O)O[C@H]1n1cnc2c(N)ncnc21 (single isomer, unassigned) [^4-ClBn7GppspAmpG (D2), Guanosine N7-4-Cl-benzyl β-phosphorothioate trinucleotide Cap1]
antigen protein expression efficiency [1, 3]: higher

CO[C@@H]1[C@H](OP(=O)(O)OC[C@H]2O[C@@H](n3cnc4c(=O)[nH]c(N)nc43)[C@H](O)[C@@H]2O)[C@@H](COP(=O)(O)OP(O)(=S)OP(=O)(O)OC[C@H]2O[C@@H](n3c[n+](Cc4ccccc4)c4c(=O)[nH]c(N)nc43)[C@H](O)[C@@H]2O)O[C@H]1n1cnc2c(N)ncnc21 (single isomer, unassigned) [^Bn7GppspAmpG (D1), Guanosine N7-benzyl β-phosphorothioate trinucleotide Cap1]
antigen protein expression efficiency [1, 3]: higher

CO[C@@H]1[C@H](OP(=O)(O)OC[C@H]2O[C@@H](n3cnc4c(=O)[nH]c(N)nc43)[C@H](O)[C@@H]2O)[C@@H](COP(=O)(O)OP(O)(=S)OP(=O)(O)OC[C@H]2O[C@@H](n3c[n+](Cc4ccccc4)c4c(=O)[nH]c(N)nc43)[C@H](O)[C@@H]2O)O[C@H]1n1cnc2c(N)ncnc21 (single isomer, unassigned) [^Bn7GppspAmpG (D2), Guanosine N7-benzyl β-phosphorothioate trinucleotide Cap1]
antigen protein expression efficiency [1, 3]: higher

CO[C@@H]1[C@H](OP(=O)(O)OC[C@H]2O[C@@H](n3cnc4c(=O)[nH]c(N)nc43)[C@H](O)[C@@H]2O)[C@@H](COP(=O)(O)OP(=O)(O)OP(=O)(O)OC[C@H]2O[C@@H](n3c[n+](Cc4ccccc4)c4c(=O)[nH]c(N)nc43)[C@H](O)[C@@H]2O)O[C@H]1n1cnc2c(N)ncnc21 [BzCap1, Guanosine N7-benzyl trinucleotide Cap1]
antigen protein expression efficiency [1, 4]: higher | antigen protein expression efficiency [1, 3]: higher | antigen protein expression efficiency ([1]; mRNA using natural rNTPs, compared with CleanCap, HEK 293): more efficient

CO[C@@H]1[C@H](OP(=O)(O)OC[C@H]2O[C@@H](n3cnc4c(=O)[nH]c(N)nc43)[C@H](O)[C@@H]2O)[C@@H](COP(=O)(O)OP(=O)(O)OP(=O)(O)OC[C@H]2O[C@@H](n3c[n+](Cc4ccccn4)c4c(=O)[nH]c(N)nc43)[C@H](O)[C@@H]2O)O[C@H]1n1cnc2c(N)ncnc21 [PyCap1, Guanosine N7-(pyridin-2-ylmethyl) trinucleotide Cap1 analog]
antigen protein expression efficiency [1, 4]: higher | antigen protein expression efficiency ([1]; compared with CleanCap mRNA (Luc mRNA CAP1), in both mRNA using natural rNTPs and mRNA with pseudouridine triphosphate instead of rUTP, HEK 293, 24 hours): higher | antigen protein expression efficiency ([1]; compared with CleanCap mRNA (Luc mRNA CAP1), in both mRNA using natural rNTPs and mRNA with pseudouridine triphosphate instead of rUTP, HEK 293, 24 hours, listed as PyCapl): more efficient

CO[C@@H]1[C@H](OP(=O)(O)OC[C@H]2O[C@@H](n3cnc4c(=O)[nH]c(N)nc43)[C@H](O)[C@@H]2O)[C@@H](COP(=O)(O)OP(=O)(O)OP(=O)(O)OC[C@H]2O[C@@H](n3c[n+](Cc4cccs4)c4c(=O)[nH]c(N)nc43)[C@H](O)[C@@H]2O)O[C@H]1n1cnc2c(N)ncnc21 [ThioCap1, Guanosine N7-(thiophen-2-ylmethyl) trinucleotide Cap1 analog]
antigen protein expression efficiency [1, 4]: higher | antigen protein expression efficiency ([1]; compared with CleanCap mRNA (Luc mRNA CAP1), in both mRNA using natural rNTPs and mRNA with pseudouridine triphosphate instead of rUTP, HEK 293, 24 hours, listed as ThioCapl): more efficient; also recorded: higher | transcription efficiency [2]: similar

CO[C@@H]1[C@H](OP(=O)(O)OC[C@H]2O[C@@H](n3cnc4c(=O)[nH]c(N)nc43)[C@H](O)[C@@H]2O)[C@@H](COP(=O)(O)OP(=O)(O)OC[C@H]2O[C@@H](n3c[n+](Cc4ccc(Cl)cc4)c4c(=O)[nH]c(N)nc43)[C@H](O)[C@@H]2O)O[C@H]1n1cnc2c(N)ncnc21 [^4-ClBn7GppAmpG, Guanosine N7-4-Cl-benzyl trinucleotide diphosphate Cap1]
antigen protein expression efficiency [1, 3]: higher

CO[C@@H]1[C@H](OP(=O)(O)OC[C@H]2O[C@@H](n3cnc4c(=O)[nH]c(N)nc43)[C@H](O)[C@@H]2O)[C@@H](COP(=O)(O)OP(=O)(O)OP(=O)(O)OC[C@H]2O[C@@H](n3c[n+](Cc4ccc(Cl)cc4)c4c(=O)[nH]c(N)nc43)[C@H](O)[C@@H]2O)O[C@H]1n1cnc2c(N)ncnc21 [^4-ClBn7GpppAmpG, Guanosine N7-4-Cl-benzyl trinucleotide Cap1]
antigen protein expression efficiency [1, 3]: higher

CO[C@@H]1[C@H](OP(=O)(O)OC[C@H]2O[C@@H](n3cnc4c(=O)[nH]c(N)nc43)[C@H](O)[C@@H]2O)[C@@H](COP(=O)(O)OP(=O)(O)OC[C@H]2O[C@@H](n3c[n+](Cc4ccccc4)c4c(=O)[nH]c(N)nc43)[C@H](O)[C@@H]2O)O[C@H]1n1cnc2c(N)ncnc21 [^Bn7GppAmpG, Guanosine N7-benzyl trinucleotide diphosphate Cap1]
antigen protein expression efficiency [1, 3]: higher

CO[C@@H]1[C@H](OP(=O)(O)OC[C@H]2O[C@@H](n3cnc4c(=O)[nH]c(N)nc43)[C@H](O)[C@@H]2O)[C@@H](COP(=O)(O)OP(=O)(O)OP(=O)(O)OC[C@H]2O[C@@H](n3c[n+](Cc4ccccc4)c4c(=O)[nH]c(N)nc43)[C@H](O)[C@@H]2O)O[C@H]1n1cnc2c(NCc3ccccc3)ncnc21 [^Bn7Gppp^Bn6AmpG, Guanosine N^7, adenosine N^6-dibenzyl trinucleotide Cap1]
antigen protein expression efficiency [1, 3]: higher

CO[C@@H]1[C@H](OP(=O)(O)OC[C@H]2O[C@@H](n3cnc4c(=O)[nH]c(N)nc43)[C@H](O)[C@@H]2O)[C@@H](COP(=O)(O)OP(=O)(O)OP(=O)(O)OC[C@H]2O[C@@H](n3c[n+](Cc4ccccc4)c4c(=O)[nH]cnc43)[C@H](O)[C@@H]2O)O[C@H]1n1cnc2c(N)ncnc21 [^Bn7IpppAmpG, Inosine N7-benzyl trinucleotide Cap1]
antigen protein expression efficiency [1, 3]: higher

L-Guanosine N7-benzyl trinucleotide Cap1 [^Bn7LGpppAmpG]
antigen protein expression efficiency [1, 3]: higher
